Measurements: patent publication US11220527B2, “Peptides derived from the propeptide NTSR3 and their use in the treatment of depression” (CENTRE NATIONAL DE LA RECHERCHE SCIENTIFIQUE, priority 2016, dated 2022)
Entries after “also recorded” stand apart in the source; their conditions may differ. Where a SMILES comes first, the peptide text is derived from it. The star is where a group is joined. Biotin = O=C1N[C@H]2[C@H](CS[C@H]2CCCCC(=O)*)N1

Assays:
[1] = molecular target: T1, TREK-1 channels expressed on the ßTC3 cells (Mus musculus, UniProt P97438); test: Whole-cell patch clamp, I=f(V), on ßTC3 cells activated with arachidonic acid; format: cell-based; conditions: previously activated with arachidonic acid, FIG. 7A
T1 construct: TREK-1 channels are present on the surface of beta-pancreatic cells such as beta-TC3 cells; endogenous in cells; host or cells: ßTC3 cells
T1 sequence (P97438 1-426): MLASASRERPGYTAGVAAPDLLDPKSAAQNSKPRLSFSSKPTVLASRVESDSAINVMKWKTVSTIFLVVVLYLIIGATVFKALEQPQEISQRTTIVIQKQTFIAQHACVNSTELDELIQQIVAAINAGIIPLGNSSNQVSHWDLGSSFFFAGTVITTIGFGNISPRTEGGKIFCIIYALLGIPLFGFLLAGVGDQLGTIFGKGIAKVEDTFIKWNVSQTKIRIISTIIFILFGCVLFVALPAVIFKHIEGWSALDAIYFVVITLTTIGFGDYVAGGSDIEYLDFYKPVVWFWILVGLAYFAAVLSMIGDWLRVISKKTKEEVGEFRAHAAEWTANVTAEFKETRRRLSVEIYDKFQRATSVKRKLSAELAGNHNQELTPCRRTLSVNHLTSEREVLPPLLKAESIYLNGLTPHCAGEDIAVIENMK
Procedure: (§1) All experiments measuring the effect of spadin analogs and spadin were performed on ßTC3 or LNCaP or HEK293 cells stably transfected with the TREK-1 channel, hTREK-1/HEK293. The hTREK-1/HEK293 cell line was prepared in the laboratory. These cells also express a reporter gene: E-Green Fluorescent Protein (EGFP) enabling their visualization.
The ßTC3 cells were cultured in RPMI 1640 medium supplemented with 2.5% FCS, 50 μM beta-mercaptoethanol, 10 mM HEPES, 1 mM sodium pyruvate, 50 μg/ml gentamycin and 1% of a streptomycin+penicillin mixture, at 37° C. in the presence of 5% CO2.
The LNCaP cells were cultured in DMEM medium (Gibco)/10% fetal calf serum (FCS, ICN)/1% streptomycin+penicillin mixture (Gibco)/1% glutamax (Gibco)/at 37° C. in the presence of 5% CO2. […] From day 2 to day 4, the cells were measured by electrophysiological methods.
(§2) All measurements were made at room temperature, i.e. at 21-22° C. The hTREK-1/HEK293 cells were identified by the fluorescence emitted by EGFP after excitation at 480 nm. […]
The cell culture medium was replaced with a solution 150 mM NaCl, 5 mM KCl, 3 mM MgCl2, 1 mM CaCl2, 10 mM HEPES/NaOH pH 7.4 containing 10 mM tetraethylammonium chloride, 3 mM 4-aminopyridine. […] The resting potential of the membrane of the measured cell was set at −80 mV. […]

[2] = molecular target: T2, TREK-1 channels expressed on the LNCaP cells (Homo sapiens, UniProt O95069); test: Whole-cell patch clamp, I=f(V), on LNCaP cells activated with arachidonic acid; format: cell-based; conditions: previously activated with arachidonic acid, FIG. 7B
T2 construct: TREK-1 channels are also present on the surface of cancer cells such as LNCaP cells (prostate cancer); endogenous in cells; host or cells: LNCaP cells
T2 sequence (O95069 1-426): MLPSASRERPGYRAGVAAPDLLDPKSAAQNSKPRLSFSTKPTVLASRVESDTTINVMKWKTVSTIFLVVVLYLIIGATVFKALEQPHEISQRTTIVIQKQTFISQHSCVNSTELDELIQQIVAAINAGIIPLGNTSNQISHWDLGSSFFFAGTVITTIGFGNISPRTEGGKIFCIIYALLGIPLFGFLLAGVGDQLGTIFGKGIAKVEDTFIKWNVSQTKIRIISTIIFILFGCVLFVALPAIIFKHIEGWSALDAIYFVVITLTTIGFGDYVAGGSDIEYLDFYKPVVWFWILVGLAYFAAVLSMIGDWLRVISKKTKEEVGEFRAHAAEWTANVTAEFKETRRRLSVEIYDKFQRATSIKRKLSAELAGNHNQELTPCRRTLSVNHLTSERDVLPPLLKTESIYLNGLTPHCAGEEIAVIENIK
Procedure: as §1
The LNCaP cells were cultured in DMEM medium (Gibco)/10% fetal calf serum (FCS, ICN)/1% streptomycin+penicillin mixture (Gibco)/1% glutamax (Gibco)/at 37° C. in the presence of 5% CO2. At day 1, the hTREK-1/HEK293 or BTC3 or LNCaP cells were seeded at 20,000 cells per 35 mm diameter dish containing 2 ml of culture medium. From day 2 to day 4, the cells were measured by electrophysiological methods.
as §2
The cell culture medium was replaced with a solution 150 mM NaCl, 5 mM KCl, 3 mM MgCl2, 1 mM CaCl2, 10 mM HEPES/NaOH pH 7.4 containing 10 mM tetraethylammonium chloride, 3 mM 4-aminopyridine. […] The resting potential of the membrane of the measured cell was set at −80 mV.
The voltage variations were obtained either by continuous ramp (from −100 to +60 mV) or by a potential jump of 10 mV (from −100 to +60 mV, 1.5 seconds per jump). The data obtained were analyzed with the Pclamp software. […]

LNCaP cells = test: Growth of LNCaP cells by counting the cells in culture; format: cell-based; conditions: cell count after 24 or 48 h, FIG. 7C
TREK-1 channel = molecular target: T3, TREK-1 channel (Homo sapiens, UniProt O95069); conditions: previously shown; cited from earlier work
T3 sequence (O95069 1-426): T2 sequence (O95069 1-426)

[3] = Learned helplessness test (LHT); format: in vivo; conditions: mice, bolus of 100 μL of a 10^-6 M solution 30 minutes before conditioning, FIG. 4
Procedure: Learned resignation or learned helplessness is a model based on the repeated administration of electric shocks to induce a resigned state in the animal.
The apparatus comprises two compartments separated by a sliding door and with a floor consisting of a metal grid through which the electrical pulses are administered. The learned helplessness protocol is divided into two stages, an animal conditioning stage and a test stage.
The conditioning was carried out over a period of four days during which time the mice received 360 non-avoidable electric shocks of 0.3 mA for one hour (the door, separating the two compartments, being closed). The shocks lasted for 2 seconds and an interval of 8 seconds was respected between each shock. This conditioning step leads to a phenomenon of helplessness in animals.
On the day of the test, the mice were placed in the same compartments but with a possibility of escaping the shock. The test counted 30 trials. During the administration of the shock, the door separating the two compartments opened, allowing the animals to flee. When the animal changes compartment the test is finished and the shock stops. […] This test made it possible to record the escape latencies of the animals. The thirty tests were then grouped by 5 and the average escape time was calculated. […]

[4] = tested on: BrdU-positive cells of the dentate gyrus of the hippocampus; test: Hippocampal neurogenesis by BrdU immunohistochemistry; format: in vivo; conditions: mice, four days of treatment, FIG. 5
Procedure: BrdU (5-bromo-2′-deoxyuridine) is a synthetic nucleoside analogous to thymidine. It is incorporated during DNA replication during phase S (chromosome duplication during interphase) of the cells in division. Injection of BrdU makes it possible to visualize the cells in division of the tissue to be analyzed by means of immunological labeling. In the present study, the hippocampal neurogenesis of the mice was evaluated after treatment with spadin or the different analogs.
After the behavioral tests, the mice were injected with BrdU at a final concentration of 120 mg/kg intraperitoneally, according to the modified protocol of Beauquis, J. et al. (Eur J Neurosci 23, 1539-1546, 2007). Four injections of 300 μl at 10 mg/ml, spaced two hours apart, were performed. 24 hours after the injections, the mice were anesthetized with pentobarbital (100 mg/kg) and then perfused intracardially. During the intracardiac perfusion, physiological saline was administered to remove all blood from the body of the mice, and then 4% paraformaldehyde (PFA) was perfused to fix the organs. Post-fixation in 4% PFA was also performed overnight. The brains of the mice were cut with a vibratome (Leica), which allowed 40 μm floating frontal sections to be obtained. The sections selected for the immunological reaction were those ranging from bregma 3.3 to 5.3. Eight sections were selected with a regular spacing, allowing the entire hippocampus to be covered while remaining homogeneous from one brain to another.
The immunological reaction was performed by incubating an anti-BrdU primary antibody (BD Pharmingen, 1/8000), with the brain sections, overnight at 4° C. The brain sections were then washed in PBS (Phosphate Buffered Saline) and incubated for two hours with the secondary antibody (biotinylated goat anti-mouse antibody, Vector laboratories, 1/400). […]
The sections were then mounted on slides and fixed with Entellan. BrdU-positive cells of the dentate gyrus of the hippocampus were counted in both hemispheres of each brain. […]

PSD-95 protein = test: Synaptogenesis: PSD-95 expression in cortical neurons by Western blot; format: cell-based, mouse C57BI/6J; conditions: 1 μM, 0-36 hours, normalized to ß-actin, FIG. 6
Procedure: Pregnant female C57BI/6J mice (20-25 g, Janvier Labs, St Berthevin, France) were anesthetized by inhalation of 2% isoflurane mixed with 30% oxygen and 70% nitrous oxide, and then sacrificed. The embryos (E14) were removed and the cerebral cortex was dissected in PBS containing 1% glucose. Neurons were prepared from cerebral cortex by mechanical dissociation, as described in Brewer and Torricelli, 2007 [26]. The dissociated neurons were distributed in poly-L-lysine treated plates and cultured for up to 10 days in neurobasal medium containing 2% B27 (Invitrogen, Fisher Scientific, Illkirch, France) and 50 μg/ml gentamycin (Sigma France), at 37° C. under 5% CO2. […]
Cortical neurons treated with peptides G/A-PE(22-28) and biotinylated G/A-PE(22-28) for different durations (0, 5, 8, 24 and 36 hours) were homogenized in Laemmli buffer and analyzed using 10% SDS-Page gels. […] The ß-actin contents were determined after extraction using a 1/5000 dilution of anti-β-actin antibodies (Santa Cruz mouse monoclonal antibody, dilution 1/5000). […] The proteins were detected with ECL Plus detection reagents (Amersham Biosciences) using the LAS-3000 imaging system (Fujifilm, Düsseldorf, Germany). The relative intensities of each labeled band were analyzed by densitometric scanning using ImageJ software (Wayne Rasband, National Institute of Health, Bethesda, Md., USA). […]

Molecule: GVSWGLR (Peptide PE(22-28)) [base peptide derived from the propeptide, used for design of other peptides]
- blocking of arachidonic acid (aa) activated TREK-1 / potassium currents on ßTC3 cells [1]: blocks arachidonic acid (aa) sensitive potassium currents
- blocking of arachidonic acid (aa) activated TREK-1 / potassium currents on LNCaP cells [2]: blocks arachidonic acid (aa) sensitive potassium currents; also recorded: capable of blocking the TREK-1 channels
- growth of LNCaP cells (LNCaP cells): inhibits their growth; also recorded: capable of inhibiting the cell growth

Molecule: QDRLDAPPPPAAPLPRWSGPIGVSWGLRAAAAGGAFPRGGRWRR (Propeptide PE)
- blocking of TREK-1 channel activity (TREK-1 channel): able to block the activity of the TREK-1 channel

Molecule: CC(C)C[C@H](NC(=O)CNC(=O)[C@H](Cc1c[nH]c2ccccc12)NC(=O)[C@H](CO)NC(=O)[C@@H](NC(=O)[C@H](C)NC(=O)CCCC[C@@H]1SC[C@@H]2NC(=O)N[C@@H]21)C(C)C)C(=O)N[C@@H](CCCNC(=N)N)C(=O)O [biotinylated G/A-PE(22-28)] (Biotin-AVSWGLR-OH; N-terminus and C-terminus assumed)
- escape latencies in the learned helplessness test [3]: capable of reducing the escape latencies
- neurogenesis (BrdU-positive cells of the hippocampus) [4]: increase neurogenesis more strongly than peptide PE(22-28); also recorded: capable of inducing an increase in neurogenesis
- PSD-95 synaptic protein expression (synaptogenesis) (PSD-95 protein): increased PSD-95 synaptic protein expression
